Experimental data: PMC2692545 (Biochemical pharmacology, 2009)

What follows are compounds tested against C1/C2 + Gsα (VC1:IIC2 plus Gsα-GTPγS) (Canis lupus familiaris; Rattus norvegicus; Bos taurus, UniProt P26769+P30803) (assay: […]cAMP formation from [α-32P]ATP, stimulation of catalysis).
Format: biochemical

Chain of C1/C2 + Gsα (VC1:IIC2 plus Gsα-GTPγS) (P30803 442-656): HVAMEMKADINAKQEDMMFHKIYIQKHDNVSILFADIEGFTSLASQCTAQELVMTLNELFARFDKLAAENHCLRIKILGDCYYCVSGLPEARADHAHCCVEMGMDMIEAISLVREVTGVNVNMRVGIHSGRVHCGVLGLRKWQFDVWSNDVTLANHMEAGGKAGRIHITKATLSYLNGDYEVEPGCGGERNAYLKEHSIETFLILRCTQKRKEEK
Chain of C1/C2 + Gsα (VC1:IIC2 plus Gsα-GTPγS) (P26769 870-1081): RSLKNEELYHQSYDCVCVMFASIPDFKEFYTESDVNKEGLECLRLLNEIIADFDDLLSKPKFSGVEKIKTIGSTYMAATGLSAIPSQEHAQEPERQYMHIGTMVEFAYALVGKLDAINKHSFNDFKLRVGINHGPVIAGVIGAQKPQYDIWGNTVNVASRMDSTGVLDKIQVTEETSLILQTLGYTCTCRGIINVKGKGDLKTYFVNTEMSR
Chain of C1/C2 + Gsα (VC1:IIC2 plus Gsα-GTPγS) (P04896 2-394 partner): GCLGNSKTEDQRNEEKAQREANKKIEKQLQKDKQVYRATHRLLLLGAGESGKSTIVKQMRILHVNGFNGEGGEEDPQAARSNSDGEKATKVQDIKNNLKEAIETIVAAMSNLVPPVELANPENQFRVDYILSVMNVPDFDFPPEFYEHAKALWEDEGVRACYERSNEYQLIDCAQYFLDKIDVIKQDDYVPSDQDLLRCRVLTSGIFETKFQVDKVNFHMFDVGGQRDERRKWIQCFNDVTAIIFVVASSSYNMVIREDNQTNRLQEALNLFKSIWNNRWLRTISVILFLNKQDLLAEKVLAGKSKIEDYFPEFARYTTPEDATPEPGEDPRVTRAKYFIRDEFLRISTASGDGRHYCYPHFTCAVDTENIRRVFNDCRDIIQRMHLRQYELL

Compound	EC50
C=C[C@@]1(C)CC(=O)[C@]2(O)[C@@]3(C)[C@@H](O)CCC(C)(C)[C@@H]3[C@H](OC(C)=O)[C@H](O)[C@@]2(C)O1 [6A7DA-FS]	2.6 ± 1 µM
C=C[C@@]1(C)CC(=O)[C@H]2[C@](C)(O1)[C@@H](OC(C)=O)[C@@H](O)[C@H]1C(C)(C)CC[C@H](O)[C@@]12C [9d-FS]	19.5 ± 0.7 µM
C=C[C@@]1(C)CC(=O)[C@]2(O)[C@@]3(C)[C@@H](O)CCC(C)(C)[C@@H]3[C@H](O)[C@H](OC(=O)CCCN3CCN(C)CC3)[C@@]2(C)O1 [DMB-FS]	27.6 ± 7 µM
C=C[C@@]1(C)CC(=O)[C@]2(O)[C@@]3(C)[C@@H](O)CCC(C)(C)[C@@H]3[C@H](O)[C@H](OC(C)=O)[C@@]2(C)O1 [FS]	7.4 ± 1.2 µM
